Results: patent US4327114A, “Substituted 1,8-dihydroxy-9-(10H)anthracenones” (Boehringer Ingelheim GmbH, priority 1980, dated 1982)
Values belong to the molecule of their own block, whether it stands above or below them.

Columns and labels:
psoriasis = settings: cited from earlier work; for antipsoriatic activity: literature or prior use
skin [1] = settings: literature or prior use; cited from earlier work
mouse = test: Acute toxicity in the mouse; type: in vivo
Protocol: (§1) The acute toxicity was determined in the mouse and in the rat. Determined was the LD50, i.e. the dose after administration of which 50% of the animals died within 14 days, or it was determined how many of the 10 treated animals died within the period of observation.

[2] = Acute toxicity in the mouse; type: in vivo; settings: in vivo, ip, within 14 days
Protocol: as §1

[3] = tested on: skin (forearms of volunteer human test subjects); test: Orienting skin compatibility in humans (ointments on forearm); type: in vivo; settings: 0.44% ointment, 16 hours, doubled to 0.88% after 3 days if no reaction
Protocol: Ointments, each containing individually 0.44% of compounds […] and K were applied to the forearms of volunteer human test subjects, covered with bandage gauze and allowed to remain on the skin for 16 hours. After 16 hours the ointments were washed off with soap solution, and the skin irritation and discoloration, if any, were evaluated visually and photographed. Then, the test ointments were again administered and allowed to remain on the skin until the next day. Again, the reactions were evaluated and a new treatment was started.

skin of guinea pigs = test: Skin compatibility test on guinea pigs; type: in vivo, guinea pig (Perbright White strain); settings: for Sum of the reactions divided by the number of animals: score 0 no irritation to 3 very strong erythema; for skin compatibility compared with compound A: Table 3
Protocol: Guinea pigs of the Perbright White strain, with a body weight of about 350 gm, were fed with standard guinea pig feed (Altromin 3022) and water ad lib.
During the test, the animals were kept in single cages. The test substances, which were dissolved in a well compatible solvent, were applied to the skin of the animals (diameter of the test area 3.5 cm) daily for 3 weeks, from Monday to Friday. The animals were shaved each Monday, Wednesday and Friday in the early morning, the treatment with the test substances was performed in the early afternoon. Immediately before administration of the substance, the skin reaction was tested. The evaluation was carried out visually, and erythema, edema, and mycosis of the skin were considered.
The following evaluation was made:
2: strong erythema with beginning edema
3: very strong erythema with edema or beginning necrosis.
The numerical sum of the reactions was used for the total evaluation of a group of animals.

rat = test: Acute toxicity in the rat; type: in vivo; settings: 2000 mg/kg
Protocol: as §1

[4] = Acute toxicity in the rat; type: in vivo; settings: in vivo, ip, within 14 days
Protocol: as §1

[5] = target: glucose-6-phosphate-dihydrogenase; test: Inhibition of glucose-6-phosphate-dihydrogenase after 120 minutes incubation; type: biochemical; settings: 37° C., pH 7.6, REED and MUENCH
Protocol: The inhibiting effect upon enzymes was determined by measurement of the inhibition of glucose-6-phosphate-dihydrogenase.
The following equilibrium was observed: [drawing 5] (NADP-nicotinamide-adenine-dinucleotide-phosphate). The rate of formation of NADPH is a measure of the enzyme activity; it can be measured by means of the increase in extinction at […] per unit of time.
0.025 ml of glucose-6-phosphate-dihydrogenase were diluted to 10 ml with distilled water (Solution I). 100 mg of nicotinamide-adenine-dinucleotide-phosphate were dissolved in 13 ml of distilled water (Solution II). 47.2 mg of glucose-6-phosphate were dissolved in another 10 ml of distilled water (Solution III). Besides this, a buffer solution (Solution IV) was prepared as follows:
0.28 gm of triethanolamine hydrochloride and 1.461 gm of ethylene-diamine tetraacetic acid disodium salt were dissolved in 1 liter of distilled water, and the solution was adjusted to pH 7.6 with sodium hydroxide. The substance to be tested was dissolved in dimethyl formamide or ethanol (Solution V). Tested end-concentrations: 25, 12.5, 6.25, 3.125, 1.56 and 0.78 μg/ml.
A mixture of 0.1 ml of Solution I, 0.1 ml of Solution II, 2.67 ml of Solution IV and 0.03 ml of Solution V was kept at 37° C. for 120 minutes. After addition of 0.1 ml of Solution III and thorough mixing, the change in extinction was measured photometrically at 366 nm over 3 minutes. The inhibition values were calculated from the average values of 3 measurements (as change of extinction per minute), compared to controls to which the pure solvent was added as inhibitor solution. The ED50 was calculated according to the method of REED and MUENCH from the inhibiting values of the different concentrations. The following table contains the values thus determined: […]

guinea pigs = test: Sensitizing activity on guinea pigs; type: in vivo, guinea pig (Perbright White strain); settings: 1:10 to 1:50 of the original concentrations, behind the ears
Protocol: The sensitizing activity was tested 2 weeks after the skin compatibility test with 1:10 to 1:50 of the originally used concentrations behind the ears.

[6] = Penetration and metabolization in the skin in vitro; type: in vitro ADME, pig; settings: thin-layer chromatography; for penetration into the layers of the skin: same carriers
skin [7] = test: Skin compatibility under occlusion, method of Mustakallio; type: in vivo; settings: 4 to 128 mmols in white vaseline, after 4 and after 16 hours of occlusion
Protocol: In a further test, according to the method of Mustakallio, compound A was applied at concentrations of 1, 2, 4, 8, 16, 32 mmols in white vaseline and allowed to remain on the skin for 4 hours under occlusion. Compounds C and K, however, were applied at concentrations of 4, 8, 16, 32, 64, 128 mmols, also in white vaseline, and allowed to remain on the skin for 16 hours under occlusion. […] This means that the novel compounds are more compatible by a factor of at least 64.

[8] = Natural color of the substance (UV-absorption, FIG. 1); type: physicochemical; settings: shortwave portion of visible light, beginning at 380 nm
Excerpt: Topically administrable substances which are colored are undesirable for cosmetic reasons and also because the lingerie may become soiled. […] This is also expressed by the optic impression of the preparations. […] This is a further advantage compared with dithranol.

ED50, inhibition of incubation after 120 minutes [5]: 3.61 µg/mL
Structure (SMILES): CCCCC(C)c1ccc2c(c1O)C(=O)c1c(O)cccc1C2 (centres unmarked) [E, 2-(2-Hexyl)-1,8-dihydroxy-9-(10H)anthracenone]
discoloration of the skin [3]: no skin irritation or discoloration of the skin
skin irritation [3]: no skin irritation

ED50, inhibition of incubation after 120 minutes [5]: 6.32 µg/mL
Structure (SMILES): CC(C)(C)c1ccc2c(c1O)C(=O)c1c(O)cccc1C2 [D, 2-tert. Butyl-1,8-dihydroxy-9-(10H)anthracenone]
discoloration of the skin [3]: no skin irritation or discoloration of the skin
skin irritation [3]: no skin irritation
Sum of the reactions divided by the number of animals (skin of guinea pigs; 0.03%, end of 1st week): 0.083
Sum of the reactions divided by the number of animals (skin of guinea pigs; 0.03%, end of 2nd week): 0.042
Sum of the reactions divided by the number of animals (skin of guinea pigs; 0.03%, end of 3rd week): 0.00
skin compatibility compared with compound A (skin of guinea pigs): considerably more skin-compatible than compound A
sensitization (guinea pigs): no sensitization

discoloration of the skin [3]: skin discoloration similar to compound A
ED50, inhibition of incubation after 120 minutes [5]: 6.86 µg/mL
Structure (SMILES): Cc1cc(O)c2c(c1)Cc1cccc(O)c1C2=O [Compound B, 1,8-Dihydroxy-3-methyl-9-(10H)-anthracenone, reference compound]

ED50, inhibition of incubation after 120 minutes [5]: 5.67 µg/mL
metabolization in the skin [6]: metabolized in a similar manner
Structure (SMILES): CC(C)c1cc(C(C)C)c2c(c1O)C(=O)c1c(O)cccc1C2 [G, 1,8-Dihydroxy-2,4-diisopropyl-9-(10H)anthracenone]
discoloration of the skin [3]: no skin irritation or discoloration of the skin
skin irritation [3]: no skin irritation
penetration into the layers of the skin [6]: penetrate to an approximately equal extent

Further lines, the molecule ahead of its results:

Structure (SMILES): CC(=O)Oc1cccc2cc3cccc(OC(C)=O)c3c(OC(C)=O)c12 [dithranol triacetate, 1,8,9-Triacetoxyanthracene]
antipsoriatic activity (psoriasis): less active than dithranol
therapeutic index (psoriasis; literature, compared with dithranol): a real improvement of the therapeutic index could not be obtained
skin irritation and/or discoloration (skin [1]): less skin irritation

Structure (SMILES): CC(C)c1ccc(O)c2c1Cc1cccc(O)c1C2=O [Compound F, 1,8-Dihydroxy-4-isopropyl-9-(10H)anthracenone]
Number of dead animals (mouse; p.o., 2000 mg/kg): 0/10
Number of dead animals (mouse; sc., 2000 mg/kg): 0/10
LD50 at 336 h [2]: 52 mg/kg
discoloration of the skin [3]: no skin irritation or discoloration of the skin
skin irritation [3]: no skin irritation
Sum of the reactions divided by the number of animals (skin of guinea pigs; 0.015%, end of 1st week): 0.085
Sum of the reactions divided by the number of animals (skin of guinea pigs; 0.015%, end of 2nd week): 0.085
Sum of the reactions divided by the number of animals (skin of guinea pigs; 0.015%, end of 3rd week): 0.085
Sum of the reactions divided by the number of animals (skin of guinea pigs; 0.045%, end of 1st week): 0.085
Sum of the reactions divided by the number of animals (skin of guinea pigs; 0.045%, end of 2nd week): 0.085
Sum of the reactions divided by the number of animals (skin of guinea pigs; 0.045%, end of 3rd week): 0.085
skin compatibility compared with compound A (skin of guinea pigs): considerably more skin-compatible than compound A
Number of dead animals (rat; p.o.): 0/10
Number of dead animals (rat; sc.): 0/10
LD50 at 336 h [4]: 45 mg/kg
ED50, inhibition of incubation after 120 minutes [5]: 5.35 µg/mL
sensitization (guinea pigs): no sensitization

Structure (SMILES): O=CCCC1(CCC=O)c2cccc(O)c2C(=O)c2c(O)cccc21 [bis-(formylethyl)-dithranol]
antipsoriatic activity (psoriasis): did not exhibit any antipsoriatic activity
skin irritation and/or discoloration (skin [1]): no irritation and discoloration

Structure (SMILES): O=C1c2c(O)cccc2Cc2c(Cl)ccc(O)c21 [H, 4-Chloro-1,8-dihydroxy-9-(10H)anthracenone]
ED50, inhibition of incubation after 120 minutes [5]: 3.85 µg/mL

Structure (SMILES): O=C1c2c(O)cccc2Cc2ccc(C3CCCCC3)c(O)c21 [Compound I, 2-Cyclohexyl-1,8-dihydroxy-9-(10H)anthracenone]
ED50, inhibition of incubation after 120 minutes [5]: 3.94 µg/mL

Structure (SMILES): CC(=O)C1c2cccc(O)c2C(=O)c2c(O)cccc21 [10-Acetyl-dithranol]
skin irritation and/or discoloration (skin [1]): discolored and irritated the skin at concentrations from 0.5% even more than the starting compound

Structure (SMILES): CC(C)(C)c1ccc2c(c1O)C(=O)c1c(ccc(C(C)(C)C)c1O)C2 [Compound K, 2,7-Di-tert. butyl-1,8-dihydroxy-9-(10H)anthracenone]
Number of dead animals (mouse; i.p., 1000 mg/kg): 0/10
Number of dead animals (mouse; p.o., 4000 mg/kg): 0/10
Number of dead animals (mouse; sc., 1000 mg/kg): 0/10
Sum of the reactions divided by the number of animals (skin of guinea pigs; 0.03%, end of 1st week): 0.00
Sum of the reactions divided by the number of animals (skin of guinea pigs; 0.03%, end of 2nd week): 0.042
Sum of the reactions divided by the number of animals (skin of guinea pigs; 0.03%, end of 3rd week): 0.00
skin compatibility compared with compound A (skin of guinea pigs): considerably more skin-compatible than compound A
skin irritations or discolorations (skin [7]): no skin irritations or discolorations could be observed
ED50, inhibition of incubation after 120 minutes [5]: 7.77 µg/mL
penetration into the layers of the skin [6]: penetrate to an approximately equal extent
metabolization in the skin [6]: metabolized in a similar manner
sensitization (guinea pigs): no sensitization
UV-absorption / yellow color [8]: significantly less UV-absorption
